The values below come from patent US12054479B1, “Multicyclic compounds” (SLAP Pharmaceuticals LLC, priority 2022, dated 2024).

For assay [1], the target named is T1, PARP1 (Homo sapiens, UniProt P09874). Kind of assay: cell-based assay (Table 1); proliferation assay (PARP inhibitors) in DLD-1 wt and DLD-1 BRCA2, CTG detection. Also noted: endogenous in cells; host or cells: DLD-1 wt and DLD-1 BRCA2 (-/-). The following applies: Table 1, results of the cell-based assay; cell line (DLD-1 wt or DLD-1 BRCA2) not given. As to the method: Proliferation Assay (PARP Inhibitors) in DLD-1 wt and DLD-1 BRCA2
DLD-1-wt and DLD-1 mutant cells are cultured in RPMI 1640+10% FBS+1% PS. The cells are harvested into culture media for 2-3 days. The cells are diluted into culture media (density 2˜3×10^6) and 40 uL of cell suspension (50 cells/well for DLD-1 wt and 50 cells/well for DLD-1 BRCA (−/−). The plates are covered and spun at rt at 1000 rpm, for 1 minute and then transferred. The plates are placed into 37° C. 5% CO2 incubator overnight. Test compounds are dissolved at 10 mM DMSO stock solution and then 40 uL of stock solution is transferred to a 384 PP-plate. A 10-point dilution is carried out by transferring 10 uL compound into 30 μL DMSO by using TECAN (EVO200) liquid handler. The plates are spun at rt at 1000 rpm for 1 minute and then shaken on a plate shaker for 2 minutes. Forty nL of diluted compound is transferred into the cell plate by using a liquid handler. After 7 days of incubation, a CTG detection assay is performed. The CTG detection assay is carried out by removing the plates from the incubators and then equilibrated at rt for 15 minutes. The CellTiter Glo reagents are thawed and equilibrated at rt. CellTiter-Glo reagent (30 μL) is added into each well, and the plates are placed at rt for 30 minutes followed by reading on EnVision. The inhibition activity is calculated using the formula: % Inhibition=100×(LumHC−LumSample)/(LumHC−LumLC).
In Table 1, ‘A’ indicates an IC50 of <0.1 μM, ‘B’ indicates an IC50 of ≥0.1 μM and <1.0 μM, and ‘C’ indicates an IC50 of ≥1.0 μM. As shown by the results in Table 1, compounds of Formula (I), including pharmaceutically acceptable salts thereof, are effective PARP1 inhibitors.

Assay [2] deals with T1, PARP1. Kind of assay: biochemical assay (Table 2); FP binding assay (PARP1, PARP2) with PARPi-FL. As to conditions: Table 2, results of the biochemical assay. As to the method:
FP Binding Assay (PARP1, PARP2)
The PARP1 and PARP 2 protein and the PARPi-FL were purchased from BPS Bioscience. The assay buffer was 50 mM Tris pH 8.0, 0.001% Triton X-100, 10 mM MgCl2, 150 mM NaCl. The compounds were diluted into top point concentration in 384PP-plate and transferred serially into an Optiplate-384F plate. Compound (20 nL) or DMSO was added to assay plate and then 10 uL of 40 nM PARP1 or PARP2 (diluted using assay buffer) was added. The assay plate was centrifuged at 1000 rpm for 1 min and then incubated for 30 min at rt. 6 nM PARPi-FL (diluted using assay buffer) (10 uL) was added to the plate (final concentration of PARP1 and PARP2 was 20 nM, and PARPi-FL was 3 nM). After centrifuging at 1000 rpm for 1 min, the assay plate was incubated at rt 4 h. The plates were read using Envision with Excitation filter. The data analysis was done by calculating the inhibition rate using mP value using the following equation. Inhibition (%)=(1−mpC−mpL)/mpH−mpL×100%.
As shown by the results in Table 2, compounds of Formula (I), including pharmaceutically acceptable salts thereof, are effective PARP1 inhibitors.

T1 sequence (P09874 whole entry): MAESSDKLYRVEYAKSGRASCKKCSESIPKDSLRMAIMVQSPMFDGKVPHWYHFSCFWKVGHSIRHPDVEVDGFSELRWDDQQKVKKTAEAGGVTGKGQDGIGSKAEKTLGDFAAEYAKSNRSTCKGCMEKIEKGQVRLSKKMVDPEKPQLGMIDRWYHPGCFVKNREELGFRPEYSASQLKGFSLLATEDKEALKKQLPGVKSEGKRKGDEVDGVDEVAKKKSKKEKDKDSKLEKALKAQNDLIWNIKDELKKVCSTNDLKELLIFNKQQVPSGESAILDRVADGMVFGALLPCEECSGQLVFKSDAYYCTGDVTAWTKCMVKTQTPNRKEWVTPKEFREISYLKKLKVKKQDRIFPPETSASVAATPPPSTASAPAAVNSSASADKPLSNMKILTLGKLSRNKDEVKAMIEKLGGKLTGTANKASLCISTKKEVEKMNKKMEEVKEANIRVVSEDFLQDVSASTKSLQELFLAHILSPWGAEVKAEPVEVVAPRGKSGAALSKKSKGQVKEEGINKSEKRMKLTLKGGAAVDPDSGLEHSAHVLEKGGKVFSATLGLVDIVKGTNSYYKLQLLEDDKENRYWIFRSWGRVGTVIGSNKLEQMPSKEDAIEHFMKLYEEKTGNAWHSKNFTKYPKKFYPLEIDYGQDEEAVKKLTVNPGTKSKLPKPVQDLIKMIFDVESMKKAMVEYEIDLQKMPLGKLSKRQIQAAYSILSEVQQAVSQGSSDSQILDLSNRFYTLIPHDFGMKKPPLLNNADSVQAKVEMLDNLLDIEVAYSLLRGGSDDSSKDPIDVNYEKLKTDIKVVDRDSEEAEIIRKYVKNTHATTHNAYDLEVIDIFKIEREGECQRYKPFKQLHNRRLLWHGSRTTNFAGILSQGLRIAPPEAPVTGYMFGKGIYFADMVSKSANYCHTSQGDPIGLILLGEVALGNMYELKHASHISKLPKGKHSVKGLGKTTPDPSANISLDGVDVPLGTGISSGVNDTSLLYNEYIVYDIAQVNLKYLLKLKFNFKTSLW

`CCC1Oc2ccc(CN3CCN(c4ccc(C(=O)NC)nc4F)CC3)c(F)c2NC1=O` (single isomer, unassigned) [Compound 3aa]: the IC50 against PARP1 [1] is less than 100 nM.

`CCC1Oc2ccc(CN3CCN(c4ccc(C(=O)NC)nc4F)CC3)c(F)c2NC1=O` (single isomer, unassigned) [Compound 3ab] gave a concentration for half-maximal inhibition (IC50) against PARP1 [1] of less than 100 nM.

As for `CNC(=O)c1ccc(N2CCN(Cc3ccc4c(c3F)NC(=O)C3(CC3)O4)CC2)c(C)n1` [Compound A8], the results for the IC50 on PARP1 [2] and on PARP1 [1] were less than 5 nM and less than 100 nM, respectively.

One may read the IC50 as the point on the concentration scale where inhibition reaches its midpoint.
